The results in this text go back to ChEMBL document CHEMBL1201862, “PubChem BioAssay data set” (2004).

SMILES strings stand for the structures. The source made the active and inactive calls. Bounds are passed on as bounds.

Assay [1] deals with T1, Calpain-2 catalytic subunit (Sus scrofa, UniProt P43367).
T1 sequence (P43367 whole entry): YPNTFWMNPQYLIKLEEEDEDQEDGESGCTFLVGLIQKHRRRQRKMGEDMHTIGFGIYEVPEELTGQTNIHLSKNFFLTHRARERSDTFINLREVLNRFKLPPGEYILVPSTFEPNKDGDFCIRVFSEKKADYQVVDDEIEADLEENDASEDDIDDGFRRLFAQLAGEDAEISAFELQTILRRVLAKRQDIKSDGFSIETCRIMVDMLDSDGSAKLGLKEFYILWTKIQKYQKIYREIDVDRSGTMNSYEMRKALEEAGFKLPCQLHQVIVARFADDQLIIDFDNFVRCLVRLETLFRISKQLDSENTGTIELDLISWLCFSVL
Kind of assay: pig calpain II inhibitor potency, dose response, biochemical, fluorogenic peptide substrate (AID 1420). It counts as functional.

A further assay concerns the target Cytochrome P450 2C9 (Homo sapiens, UniProt P11712).
The nature of assay [2]: microbe, parasite or virus in culture. It is filed as functional. The following applies: Mycobacterium tuberculosis.
A further assay deals with Prothrombin (Homo sapiens, UniProt P00734). In words: Thrombin 1536 HTS Dose Response Confirmation. [Related pubchem assays: 1046 (Thrombin 1536 HTS; hits were confirmed in this assay)]. It is filed as functional.
The next assay deals with T2, Protein RecA (Mycobacterium tuberculosis, UniProt P9WHJ3).
T2 sequence (P9WHJ3 whole entry): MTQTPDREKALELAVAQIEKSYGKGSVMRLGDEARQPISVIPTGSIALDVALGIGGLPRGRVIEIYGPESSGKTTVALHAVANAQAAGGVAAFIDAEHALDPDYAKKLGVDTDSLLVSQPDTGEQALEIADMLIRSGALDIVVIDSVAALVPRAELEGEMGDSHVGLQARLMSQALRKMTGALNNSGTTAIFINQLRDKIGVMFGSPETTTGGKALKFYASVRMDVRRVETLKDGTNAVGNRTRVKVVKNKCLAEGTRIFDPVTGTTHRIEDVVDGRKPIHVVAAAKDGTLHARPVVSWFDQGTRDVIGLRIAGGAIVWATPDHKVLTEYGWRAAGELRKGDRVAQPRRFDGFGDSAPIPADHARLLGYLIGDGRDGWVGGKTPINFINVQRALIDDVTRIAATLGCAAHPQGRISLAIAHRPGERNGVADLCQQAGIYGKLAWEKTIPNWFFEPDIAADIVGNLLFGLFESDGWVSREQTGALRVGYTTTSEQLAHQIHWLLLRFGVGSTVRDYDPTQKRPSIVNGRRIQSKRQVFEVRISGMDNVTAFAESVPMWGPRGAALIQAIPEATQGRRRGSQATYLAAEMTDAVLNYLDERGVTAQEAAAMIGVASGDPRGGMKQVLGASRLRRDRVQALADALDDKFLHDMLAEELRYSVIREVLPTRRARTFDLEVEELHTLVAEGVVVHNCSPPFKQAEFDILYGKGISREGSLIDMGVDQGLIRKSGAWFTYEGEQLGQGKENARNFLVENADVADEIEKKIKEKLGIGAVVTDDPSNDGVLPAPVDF
In words: Fluorescence Cell-Free Homogeneous Dose Retest to Identify Inhibitors of RecA-Intein Splicing Activity. [Related pubchem assays (depositor defined):AID2097, AID2223, AID489010, AID492950]. It is filed as functional.

Assay [3] has as its target T3, Replicative DNA helicase DnaB (Mycobacterium tuberculosis, UniProt P9WMR3).
T3 sequence (P9WMR3 whole entry): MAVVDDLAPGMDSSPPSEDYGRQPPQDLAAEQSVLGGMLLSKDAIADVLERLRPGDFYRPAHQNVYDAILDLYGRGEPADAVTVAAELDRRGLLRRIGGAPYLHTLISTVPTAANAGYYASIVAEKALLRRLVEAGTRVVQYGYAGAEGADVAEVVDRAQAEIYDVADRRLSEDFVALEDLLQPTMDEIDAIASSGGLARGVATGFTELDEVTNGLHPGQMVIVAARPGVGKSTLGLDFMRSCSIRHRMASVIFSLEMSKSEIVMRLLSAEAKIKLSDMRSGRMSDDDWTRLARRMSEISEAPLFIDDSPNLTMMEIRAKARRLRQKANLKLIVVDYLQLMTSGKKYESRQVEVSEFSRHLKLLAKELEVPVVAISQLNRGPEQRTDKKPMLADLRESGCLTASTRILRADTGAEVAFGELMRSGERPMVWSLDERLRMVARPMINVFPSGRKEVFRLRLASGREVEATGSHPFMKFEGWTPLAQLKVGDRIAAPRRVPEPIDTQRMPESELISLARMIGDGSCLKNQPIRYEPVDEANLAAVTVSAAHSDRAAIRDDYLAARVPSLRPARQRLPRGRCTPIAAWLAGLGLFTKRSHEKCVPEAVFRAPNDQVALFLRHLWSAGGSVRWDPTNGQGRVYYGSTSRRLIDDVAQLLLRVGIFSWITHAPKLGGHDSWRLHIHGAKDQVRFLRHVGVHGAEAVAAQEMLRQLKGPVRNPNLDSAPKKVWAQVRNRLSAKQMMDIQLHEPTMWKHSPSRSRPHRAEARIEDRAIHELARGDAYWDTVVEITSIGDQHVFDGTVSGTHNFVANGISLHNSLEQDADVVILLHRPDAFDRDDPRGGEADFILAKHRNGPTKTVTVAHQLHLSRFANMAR
Kind of assay: DnaB intein splicing inhibitors, dose response, biochemical, cell-free fluorescence (AID 449749). It counts as functional.

Assay [4] can be described thus: inhibitors of clade B AD8 Env fusion, dose response, cell-based, cherry-pick (AID 652062).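 Further: luciferase signal from cell-cell fusion driven by HIV-1 clade B AD8 Env; potency is for inhibitors of fusion seen as a drop in luminescence.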 It is filed as functional.
Assay [5] in a line: ZM109 Env clade C HIV-1 fusion inhibitors, dose response, HeLa effector, CEM target cells, luciferase, cherry-pick (AID 652058). It counts as functional, cell-based.
Assay [6] in a line: off-target signal loss in HeLa-CEM21 co-culture – HeLa F-luc CTL cells, cherry-picked, counter-screen for HIV-1 Env fusion inhibitor project, dose response (AID 652040).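 Further: potency for signal decrease marking cytotoxic or nonspecific inhibition.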 It is filed as functional, cell-based.
The nature of assay [7]: inhibitors of HIV Env-driven cell fusion, dose response, cherry-pick (AID 652057). It is filed as functional, cell-based.
For the next assay, the target named is T4, Cytochrome P450 1A2 (Homo sapiens, UniProt P05177).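 Further: PubChem cytochrome P450 panel assay, CYP1A2 panel member.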
T4 sequence (P05177 whole entry): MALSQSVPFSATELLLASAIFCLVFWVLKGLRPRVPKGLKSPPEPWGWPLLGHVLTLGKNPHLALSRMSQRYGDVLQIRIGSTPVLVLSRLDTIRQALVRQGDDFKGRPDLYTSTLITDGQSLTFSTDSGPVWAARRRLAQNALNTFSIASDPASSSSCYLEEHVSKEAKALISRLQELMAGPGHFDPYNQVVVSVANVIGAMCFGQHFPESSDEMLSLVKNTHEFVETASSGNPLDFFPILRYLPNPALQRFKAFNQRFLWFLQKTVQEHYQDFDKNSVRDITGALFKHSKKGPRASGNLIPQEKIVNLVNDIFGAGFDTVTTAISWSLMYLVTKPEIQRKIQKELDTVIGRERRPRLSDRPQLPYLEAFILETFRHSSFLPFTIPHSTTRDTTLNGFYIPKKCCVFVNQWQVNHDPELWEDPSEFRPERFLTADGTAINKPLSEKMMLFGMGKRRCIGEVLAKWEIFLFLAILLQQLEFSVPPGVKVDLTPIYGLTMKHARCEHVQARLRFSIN

Assay [8] concerns Streptococcus sp. 'group A'. In words: growth inhibition of control SK(-) GAS strain, dose response, counter-screen for streptokinase expression inhibitor project, luminescence, kanamycin, BacTiterGlo, confirmation (AID 1900). It is filed as functional, organism-based.
For a further assay, the system named is Streptococcus. Kind of assay: Group A Streptococcus viability loss, dose response, counter-screen for streptokinase expression inhibitor project, luminescence, BacTiterGlo (AID 1915).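 Further: potency for reduction of bacterial viability or growth.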 It is filed as functional, organism-based.
Another assay has as its system INS1. Kind of assay: beta cell apoptosis inhibitors, cytokine rescue, dose response, luminescence, retest (AID 449756).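 Further: cell death triggered by IL-1 beta plus TNF-alpha plus IFN-gamma mixture; protective hits raise ATP signal compared with cytokine alone wells.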 It counts as functional, cell-based. The following applies: Rattus norvegicus.
A short description of assay [9]: cytotoxicity toward NIH3T3 fibroblasts, dose response, counter-screen, cell-based, ATP luminescence, mouse fibroblasts (AID 2010).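 Further: cells exposed to compound for about 90 hours before reading.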 It counts as functional.
Assay [10] can be described thus: inhibitors of intracellular T. cruzi replication, confirmation, NIH3T3 host cells, beta-gal luminescence (AID 2044).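 Further: intracellular parasites grown in NIH/3T3 mouse fibroblasts as host cells; luminescent beta-galactosidase reporter signal from transgenic T. cruzi replicating inside host cells; inhibitors lower the luminescence signal.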 It counts as functional, cell-based.
A further assay concerns the target T5, Estrogen receptor (Homo sapiens, UniProt P03372).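 Further: potency for inhibiting coactivator peptide recruitment to the receptor.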
T5 sequence (P03372 whole entry): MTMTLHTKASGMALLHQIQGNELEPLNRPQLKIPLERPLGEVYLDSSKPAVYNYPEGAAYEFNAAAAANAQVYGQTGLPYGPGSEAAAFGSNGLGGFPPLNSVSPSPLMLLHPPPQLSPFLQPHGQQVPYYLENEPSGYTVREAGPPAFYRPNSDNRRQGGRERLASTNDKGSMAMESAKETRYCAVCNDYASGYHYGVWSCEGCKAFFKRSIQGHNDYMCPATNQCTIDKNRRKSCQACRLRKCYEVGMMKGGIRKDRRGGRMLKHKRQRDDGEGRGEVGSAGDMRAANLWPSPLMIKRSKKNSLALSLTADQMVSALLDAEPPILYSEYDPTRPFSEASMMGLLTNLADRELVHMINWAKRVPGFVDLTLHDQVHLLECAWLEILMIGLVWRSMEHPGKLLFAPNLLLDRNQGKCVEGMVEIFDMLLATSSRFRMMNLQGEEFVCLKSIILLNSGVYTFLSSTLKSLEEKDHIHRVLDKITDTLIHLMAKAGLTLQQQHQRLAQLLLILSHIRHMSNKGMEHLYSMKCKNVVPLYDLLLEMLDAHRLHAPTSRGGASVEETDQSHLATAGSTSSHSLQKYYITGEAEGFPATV

Assay [11] is described as follows: HEp-2 cell cytotoxicity, dose response, cytotoxicity control for RSV inhibitor project, HTS (AID 2410). It counts as functional. The note with it: human respiratory syncytial virus.

Sequence of Cytochrome P450 2C9 (P11712 whole entry): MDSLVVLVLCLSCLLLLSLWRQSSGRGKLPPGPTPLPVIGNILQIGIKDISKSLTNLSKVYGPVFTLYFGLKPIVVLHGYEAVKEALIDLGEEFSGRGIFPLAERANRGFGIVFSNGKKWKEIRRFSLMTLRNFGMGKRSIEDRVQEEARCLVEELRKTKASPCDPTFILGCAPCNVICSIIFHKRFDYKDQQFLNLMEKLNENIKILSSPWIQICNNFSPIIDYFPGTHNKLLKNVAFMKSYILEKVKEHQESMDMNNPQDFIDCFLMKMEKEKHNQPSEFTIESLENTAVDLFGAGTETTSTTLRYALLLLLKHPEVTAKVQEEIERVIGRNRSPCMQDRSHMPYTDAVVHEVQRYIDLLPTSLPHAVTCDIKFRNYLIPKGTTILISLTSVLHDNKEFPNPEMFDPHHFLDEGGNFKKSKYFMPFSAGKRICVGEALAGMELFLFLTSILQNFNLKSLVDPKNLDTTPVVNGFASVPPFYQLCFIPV

For the compound `Cc1ccc(C(=O)O)cc1N1C(=O)c2cccc3cc(Br)cc(c23)C1=O`, in assay [1], the 50% inhibitory concentration (IC50) is 7.36 µM (not active). In addition, on Cytochrome P450 2C9, the half-maximal activity concentration (AC50) is 15.8 µM (inconclusive).
`CCCc1cnc(NCCNCC(O)COc2ccc(Cl)c(Cl)c2)nc1` (stereo not given): in [2], the CC50 is 22.1 µM (active).
Take `Nc1nc(-c2ccco2)nn1C(=O)c1ccc(Cl)cc1`: the IC50 at Prothrombin was 1.46 µM (active). For the same compound, on Protein RecA, the EC50 is 55.4 µM (active). Moreover, the concentration at half-maximal activity (AC50) in assay [3] was 14 µM (active).
In the case of `C=CCn1c(SCc2c(C)noc2C)nc2cc(C(=O)O)ccc2c1=O`, the concentration for half-maximal inhibition (IC50) against Prothrombin is on record as > 50 µM (not active).
Regarding `COc1ccc2cc(C(=O)N3CCCCCC3)sc(=O)c2c1OC`, in assay [1], the half-inhibitory concentration (IC50) was 11.1 µM (active).
With `COc1ccc([C@H]2/C=C\CN(C(=O)C3CC3)[C@@H](C)C(=O)N2Cc2ccc(F)cc2)cc1`, the half-maximal activity concentration (AC50) was 4.99 µM (active) in [4], 0.488 µM (active) in [5], 7.85 µM (active) in [6] and 4.42 µM (active) in assay [7].
Turning to `Cn1c(=O)n(-c2cccc(Cl)c2)c(=O)c2c3c(sc21)COC(C)(C)C3`, the half-maximal activity concentration (AC50) was 1.37 µM (active) in assay [4]; 3.36 µM (active) in [5]; 6.71 µM (active) in assay [6]; 14.1 µM (inconclusive) on Cytochrome P450 1A2; 3.65 µM (active) in assay [7].
For the compound `CC(C)c1onc(C(=O)Nc2cccc(Cl)c2)c1[N+](=O)[O-]`, the half-inhibitory concentration (IC50) in assay [1] is on record as 2.32 µM (not active).
The same measure, in the same setting: as for `CCC(CC)NC(=O)COC(=O)c1ccc(OCC(=O)Nc2ccccc2OC)c(OC)c1`, the figure is 18.5 µM (not active).
For the compound `CNC[C@H](Cc1cccc2ccccc12)NC[C@H](CCSC)NCC1CCC(C(C)(C)C)CC1` (stereo not given in full), the CC50 in assay [2] was 25.4 µM (active).
Regarding `CCc1nc2ccccc2c(C(=O)OCC(=O)C(C)(C)C)c1C`, the IC50 against Prothrombin is > 50 µM (not active).
Take `O=c1c2c(-c3ccccc3)csc2ncn1/N=C/c1ccc(O)c([N+](=O)[O-])c1`: the 50% inhibitory concentration (IC50) in assay [1] is given as 9.57 µM (not active).
Consider `Cc1ccc(-c2csc3nc4c5ccccc5c(NCCCN5CCOCC5)nn4c(=O)c23)cc1`, for which, in [2], the CC50 is 13.6 µM (active).
Take `N=C(NNC(=O)c1sccc1OCc1ccc(Cl)cc1Cl)c1ccccn1`: the EC50 in assay [8] was 3.89 µM (active); in the assay on Streptococcus, > 150 µM (not active). Besides, the AC50 with INS1 was 5.2 µM (active). In assay [2], the CC50 is 6.31 µM (active).
Consider `COc1ccccc1C(=O)n1nc(-c2ccco2)nc1N`, for which the 50% inhibitory concentration (IC50) at Prothrombin is 6.93 µM (active).
With `Cc1cccc(NS(=O)(=O)c2ccc(C(=O)N3CCN(c4ccccc4O)CC3)cc2)c1C`, the CC50 in assay [2] was 36.6 µM (active).
As to `COc1cccc(C(=O)N2c3ccccc3Sc3ccccc32)c1`, in assay [1], the IC50 is 6.88 µM (not active).
In the case of `CCC(C(=O)OCC(=O)Nc1ccc(SC(F)F)cc1)c1ccccc1` (stereo not given), the 50% inhibitory concentration (IC50) in assay [1] was 7.17 µM (not active); against Prothrombin it was > 50 µM (not active). The figures for the EC50 in assay [9] and in assay [10] were > 60 µM (not active) and 1.68 µM (active), respectively.
For the compound `COc1cc(NC(=O)c2cccs2)c(C(=O)OCC(=O)NCc2ccco2)cc1OC`, the 50% inhibitory concentration (IC50) on Estrogen receptor is 14.8 µM (active). In [2], the CC50 was > 40 µM (active).
As to `Cc1cc(C)cc(OCC(=O)NNC(=O)CN2C(=O)c3ccccc3C2=O)c1`, the half-inhibitory concentration (IC50) on Prothrombin is > 50 µM (not active).
For the compound `Cn1c(N)c(C(=O)COC(=O)CCC2CCCC2)c(=O)n(C)c1=O`, in [1], the IC50 is 15.5 µM (not active).
Regarding `CC(C)c1ccc(NC(S)=Nc2ccc3c[nH]nc3c2)cc1`, at Prothrombin, the IC50 is 2.49 µM (active). For the same compound, the CC50 in [11] was 37.9 µM (active).
